In ChEMBL document CHEMBL1201862, “PubChem BioAssay data set” (2004):
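Each compound was tested at five concentrations against cells in 96-well plates for 48 hours. The concentration for 50% growth inhibition is given as GI50.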 The source made the active and inactive calls. Rule as the data show it: active = GI50 up to about 1.1 µM and inactive = higher.

Experiments:
Test in all cases: inhibition of tumour cell growth, NCI panel, 48 h
UACC-62 = tested on: UACC-62
UACC-257 = tested on: UACC-257
NCI/ADR-RES = tested on: NCI/ADR-RES
A549 = tested on: A549
NCI-H460 = tested on: NCI-H460
M14 = tested on: M14
UO-31 = tested on: UO-31
NCI-H522 = tested on: NCI-H522
SNB-75 = tested on: SNB-75
Malme-3M = tested on: Malme-3M
TK-10 = tested on: TK-10
CAKI-1 = tested on: CAKI-1
RPMI-8226 = tested on: RPMI-8226
HOP-92 = tested on: HOP-92
OVCAR-3 = tested on: OVCAR-3
OVCAR-4 = tested on: OVCAR-4
COLO 205 = tested on: COLO 205
NCI-H23 = tested on: NCI-H23
SK-MEL-28 = tested on: SK-MEL-28
SW-620 = tested on: SW-620
A498 = tested on: A498
DU-145 = tested on: DU-145
NCI-H226 = tested on: NCI-H226
ACHN = tested on: ACHN
KM12 = tested on: KM12
SK-MEL-5 = tested on: SK-MEL-5
HOP-62 = tested on: HOP-62
SK-MEL-2 = tested on: SK-MEL-2
HCT-15 = tested on: HCT-15
EKVX = tested on: EKVX
Hs-578T = tested on: Hs-578T
IGROV-1 = tested on: IGROV-1
MDA-MB-231 = tested on: MDA-MB-231
T47D = tested on: T47D
786-0 = tested on: 786-0
SF-268 = tested on: SF-268
SN12C = tested on: SN12C
SK-OV-3 = tested on: SK-OV-3
LOX IMVI = tested on: LOX IMVI
RXF 393 = tested on: RXF 393
OVCAR-5 = tested on: OVCAR-5
MDA-N = tested on: MDA-N
SF-295 = tested on: SF-295
HT-29 = tested on: HT-29
U-251 = tested on: U-251
PC-3 = tested on: PC-3
BT-549 = tested on: BT-549
SF-539 = tested on: SF-539
SNB-19 = tested on: SNB-19
HCT-116 = tested on: HCT-116
MDA-MB-435 = tested on: MDA-MB-435
CCRF-CEM = tested on: CCRF-CEM
OVCAR-8 = tested on: OVCAR-8
MOLT-4 = tested on: MOLT-4
HCC 2998 = tested on: HCC 2998
K562 = tested on: K562

Measured: GI50

C#C[C@@H](OC(=O)c1ccc([N+](=O)[O-])cc1)[C@@H]1C[C@H]2O[C@@H]([C@H](C/C=C/CC)OC(=O)c3ccc([N+](=O)[O-])cc3)C[C@H]2O1
inactive: UACC-62 > 100 µM | UACC-257 > 100 µM | NCI/ADR-RES > 100 µM | A549 > 100 µM | NCI-H460 > 100 µM | M14 > 100 µM | UO-31 > 100 µM | NCI-H522 32.6 µM | SNB-75 > 100 µM | Malme-3M > 100 µM | TK-10 > 100 µM | CAKI-1 > 100 µM | RPMI-8226 > 100 µM | HOP-92 > 100 µM | OVCAR-3 > 100 µM | OVCAR-4 > 100 µM | COLO 205 > 100 µM | NCI-H23 > 100 µM | SK-MEL-28 > 100 µM | SW-620 > 100 µM | A498 > 100 µM | DU-145 > 100 µM | NCI-H226 > 100 µM | ACHN > 100 µM | KM12 > 100 µM | SK-MEL-5 > 100 µM | HOP-62 > 100 µM | SK-MEL-2 > 100 µM | EKVX > 100 µM | Hs-578T > 100 µM | IGROV-1 83.4 µM | MDA-MB-231 > 100 µM | T47D > 100 µM | 786-0 > 100 µM | SF-268 > 100 µM | SN12C > 100 µM | SK-OV-3 > 100 µM | LOX IMVI > 100 µM | RXF 393 > 100 µM | OVCAR-5 > 100 µM | MDA-N > 100 µM | SF-295 > 100 µM | HT-29 > 100 µM | U-251 > 100 µM | PC-3 > 100 µM | BT-549 > 100 µM | SF-539 > 100 µM | SNB-19 > 100 µM | HCT-116 > 100 µM | MDA-MB-435 > 100 µM | CCRF-CEM > 100 µM | OVCAR-8 > 100 µM | MOLT-4 > 100 µM | HCC 2998 > 100 µM | K562 > 100 µM
> 100 µM: HCT-15
